In patent US20250074901A1, “NOVEL HETEROARYL COMPOUNDS” (ICAGEN, LLC, priority 2021, published 2025) one finds Emax and EC50 data, which are given here for 34 compounds.

The target in this experiment is T1, Kv7.2 (Homo sapiens, UniProt O43526).
T1 construct: expressed in transfected cells
As to the kind of experiment: Activation of Kv7.2 (in vitro assay, concentration response curve). It counts as cell-based. Conditions: for Emax: Kv7.2 activation max %; for EC50: activation of Kv7.2. In a few lines:
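EC50 is the half-maximal effective concentration, relative to the Emax observed for each compound in this in vitro assay. It was derived from concentration–response curves of the agonistic effect measured over a series of concentrations.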

The structures appear in SMILES notation.

`O=C(NCc1ccnc(OC(F)F)c1)N[C@H]1C[C@@H](C(F)F)C1` [Example 137, 1-[[2-(difluoromethoxy)pyridin-4-yl]methyl]-3-[(1s,3s)-3-(difluoromethyl)cyclobutyl]urea] had an Emax of 48% and an EC50 of 2410 nM.
On the same counts, the results for `O=C(NCc1ccnc(OC(F)F)c1)N[C@H]1CCCC(F)(F)C1` [Example 140, 1-[(1S)-3,3-difluorocyclohexyl]-3-[[2-(difluoromethoxy)pyridin-4-yl]methyl]urea] are 42% and 100 nM.
`CC1(NC(=O)NCc2ccnc(OC(F)F)c2)CCC(F)(F)C1` (centres unmarked) [Example 142, 1-[[2-(difluoromethoxy)pyridin-4-yl]methyl]-3-(3,3-difluoro-1-methylcyclopentyl)urea] gave a maximum response (Emax) of 40% and an EC50 of 1030 nM.
Take `CC1(NC(=O)NCc2ccnc(OC(F)F)c2)CCC(F)(F)CC1` [Example 143, 1-[[2-(difluoromethoxy)pyridin-4-yl]methyl]-3-(4,4-difluoro-1-methylcyclohexyl)urea]: the Emax came to 40% and the 50% effective concentration (EC50) amounted to 1050 nM.
As for `O=C(NCc1ccnc(OC(F)F)c1)N[C@H]1CC[C@@H](C(F)(F)F)C1` [Example 144, 1-[[2-(difluoromethoxy)pyridin-4-yl]methyl]-3-[(1S,3R)-3-(trifluoromethyl)cyclopentyl]urea], the maximal response (Emax) amounted to 48% and the EC50 came out at 220 nM.
Consider `O=C(Nc1cccc(Cl)c1)N[C@@H](CO)c1ccnc(OCC(F)(F)F)c1` [Example 145, 1-(3-chlorophenyl)-3-[(1R)-2-hydroxy-1-[2-(2,2,2-trifluoroethoxy)pyridin-4-yl]ethyl]urea], for which the maximal effect (Emax) was 58% and the concentration giving a half-maximal response (EC50) turned out to be 80 nM.
The corresponding values for `O=C(NCc1ccnc(OC(F)F)c1)N[C@@H]1CC[C@H](C(F)(F)F)C1` [Example 146, 1-[[2-(difluoromethoxy)pyridin-4-yl]methyl]-3-[(1R,3S)-3-(trifluoromethyl)cyclopentyl]urea] are 68% and 160 nM.
On the same counts, the results for `O=C(NCc1ccnc(OC(F)F)c1)NC1CCCCC1(O)C(F)(F)F` (centres unmarked) [Example 147, 1-[[2-(difluoromethoxy)pyridin-4-yl]methyl]-3-[2-hydroxy-2-(trifluoromethyl)cyclohexyl]urea] are 56% and 540 nM.
`O=C(NCc1ccnc(OC(F)F)c1)N[C@@H]1CCCC(F)(F)C1` [Example 149, 1-[(1R)-3,3-difluorocyclohexyl]-3-[[2-(difluoromethoxy)pyridin-4-yl]methyl]urea]: the Emax was 43% and the EC50 was 240 nM.
`O=C(Nc1cccc(Cl)c1F)NC(CO)c1ccnc(OCC(F)(F)F)c1` (centres unmarked) [Example 150, 1-(3-chloro-2-fluorophenyl)-3-[2-hydroxy-1-[2-(2,2,2-trifluoroethoxy)pyridin-4-yl]ethyl]urea] registered an Emax of 73% and an EC50 of 80 nM.
Regarding `C[C@@H](F)COc1cc(CNC(=O)NC23CCC(F)(CC2)CC3)ccn1` [Example 151, 1-(4-fluoro-1-bicyclo[2.2.2]octanyl)-3-[[2-[(2R)-2-fluoropropoxy]pyridin-4-yl]methyl]urea], the Emax was 42% and it took 650 nM to reach a half-maximal effect (EC50).
Compound `O=C(NCc1ccnc(OC(F)F)c1)NC(C1CCC1)C(F)(F)F` (centres unmarked) [Example 152, 1-(1-cyclobutyl-2,2,2-trifluoroethyl)-3-[[2-(difluoromethoxy)pyridin-4-yl]methyl]urea] had a maximal response (Emax) of 64% and an EC50 of 140 nM.
On the same counts, the results for `O=C(NCc1ccnc(C(F)(F)F)c1)NC12CC(F)(C1)C2` [Example 153, 1-(3-fluoro-1-bicyclo[1.1.1]pentanyl)-3-[[2-(trifluoromethyl)pyridin-4-yl]methyl]urea] are 41% and 7270 nM.
`C[C@H](F)COc1cc(CNC(=O)NC23CCC(F)(CC2)CC3)ccn1` [Example 156, 1-(4-fluoro-1-bicyclo[2.2.2]octanyl)-3-[[2-[(2S)-2-fluoropropoxy]pyridin-4-yl]methyl]urea] registered an Emax of 50% and an EC50 of 560 nM.
On to `O=C(NCc1ccnc(OCC(F)(F)F)c1)NC1CC(F)(F)C1` [Example 157, 1-(3,3-difluorocyclobutyl)-3-[[2-(2,2,2-trifluoroethoxy)pyridin-4-yl]methyl]urea], for which the Emax was 50% and the EC50 was determined as 380 nM.
`O=C(NCc1ccnc(CC(F)(F)F)c1)NC12CC(F)(C1)C2` [Example 159, 1-(3-fluoro-1-bicyclo[1.1.1]pentanyl)-3-[[2-(2,2,2-trifluoroethyl)pyridin-4-yl]methyl]urea] had an Emax of 67% and an EC50 of 5180 nM.
On the same counts, the results for `CC(F)COc1cc(CNC(=O)NC23CC(F)(C2)C3)ccn1` (centres unmarked) [Example 160, 1-(3-fluoro-1-bicyclo[1.1.1]pentanyl)-3-[[2-(2-fluoropropoxy)pyridin-4-yl]methyl]urea] are 61% and 6310 nM.
As for `O=C(NCc1ccnc(OC(F)F)c1)Nc1cncc(Cl)c1` [Example 161, 1-(5-chloropyridin-3-yl)-3-[[2-(difluoromethoxy)pyridin-4-yl]methyl]urea], the Emax was determined as 43% and the response was half-maximal at 1050 nM (EC50).
On the same counts, the results for `O=C(NCc1ccnc(OCC(F)(F)F)c1)N[C@H]1C[C@H](F)C1` [Example 162, 1-((1r,3r)-3-fluorocyclobutyl)-3-[[2-(2,2,2-trifluoroethoxy)pyridin-4-yl]methyl]urea] are 50% and 190 nM.
The corresponding values for `C[C@H]1C[C@H](NC(=O)NCc2ccnc(OC(F)F)c2)C1` [Example 163, 1-[[2-(difluoromethoxy)pyridin-4-yl]methyl]-3-((1r,3r)-3-methylcyclobutyl)urea] are 83% and 240 nM.
On the same counts, the results for `O=C(NCc1ccnc(OCF)c1)Nc1cccc(Cl)c1` [Example 164, 1-(3-chlorophenyl)-3-[[2-(fluoromethoxy)pyridin-4-yl]methyl]urea] are 78% and 1720 nM.
`O=C(NCc1ccnc(OC(F)F)c1)NC1COC(C2CC2)C1` (centres unmarked) [Example 166, 1-(5-cyclopropyloxolan-3-yl)-3-[[2-(difluoromethoxy)pyridin-4-yl]methyl]urea] came in with an Emax of 66% and an EC50 of 3330 nM.
`O=C(NCc1ccnc(OCC(F)(F)F)c1)NC12CC(F)(C1)C2` [Example 168, 1-(3-fluoro-1-bicyclo[1.1.1]pentanyl)-3-[[2-(2,2,2-trifluoroethoxy)pyridin-4-yl]methyl]urea] had an Emax of 59% and a concentration giving a half-maximal response (EC50) of 210 nM.
For the compound `O=C(NCc1ccnc(OC(F)F)c1)N[C@@H]1C[C@@H]2[C@H](C1)C2(F)F` [Example 169, 1-[[2-(difluoromethoxy)pyridin-4-yl]methyl]-3-[(1R,3s,5S)-6,6-difluoro-3-bicyclo[3.1.0]hexanyl]urea], the maximal response (Emax) turned out to be 69% and the EC50 worked out at 340 nM.
The corresponding values for `O=C(NCc1ccnc(OC(F)F)c1)N[C@@H]1[C@H]2CCC(F)(F)[C@H]21` [Example 170, 1-[(1R,5S,6R)-2,2-difluoro-6-bicyclo[3.1.0]hexanyl]-3-[[2-(difluoromethoxy)pyridin-4-yl]methyl]urea] are 59% and 80 nM.
On the same counts, the results for `O=C(NCc1ccnc(OC(F)F)c1)NC1(C2CC(F)(F)C2)CC1` [Example 171, 1-[1-(3,3-difluorocyclobutyl)cyclopropyl]-3-[[2-(difluoromethoxy)pyridin-4-yl]methyl]urea] are 48% and 360 nM.
The corresponding values for `O=C(NCc1ccnc(OC(F)F)c1)NC1CC1(F)F` (centres unmarked) [Example 173, 1-(2,2-difluorocyclopropyl)-3-[[2-(difluoromethoxy)pyridin-4-yl]methyl]urea] are 57% and 4400 nM.
The compound `O=C(NCc1ccnc(OC(F)F)c1)N[C@H]1[C@@H]2CCC(F)(F)[C@@H]21` [Example 174, 1-[(1S,5R,6S)-2,2-difluoro-6-bicyclo[3.1.0]hexanyl]-3-[[2-(difluoromethoxy)pyridin-4-yl]methyl]urea] registered a maximal response (Emax) of 51% and an EC50 of 200 nM.
Compound `O=C(NCc1ccnc(OC(F)F)c1)NC1(C(F)(F)F)CC1` [Example 175, 1-[[2-(difluoromethoxy)pyridin-4-yl]methyl]-3-[I-(trifluoromethyl)cyclopropyl]urea] registered an Emax of 50% and an EC50 of 8300 nM.
On the same counts, the results for `O=C(NCc1ccnc(OC(F)F)c1)NC1(C23CC(F)(C2)C3)CC1` [Example 177, 1-[[2-(difluoromethoxy)pyridin-4-yl]methyl]-3-[1-(3-fluoro-1-bicyclo[1.1.1]pentanyl)cyclopropyl]urea] are 43% and 1400 nM.
`O=C(NCc1ccnc(OC(F)F)c1)NC12CC(C(F)(F)F)(C1)C2` [Example 178, 1-[[2-(difluoromethoxy)pyridin-4-yl]methyl]-3-[3-(trifluoromethyl)-1-bicyclo[1.1.1]pentanyl]urea]: the Emax stood at 62% and the EC50 was determined as 1860 nM.
The compound `O=C(NCc1ccnc(OCC(F)(F)F)c1)N[C@H]1C[C@H](C(F)(F)F)C1` [Example 179, 1-[[2-(2,2,2-trifluoroethoxy)pyridin-4-yl]methyl]-3-[(1r,3r)-3-(trifluoromethyl)cyclobutyl]urea] displayed an Emax of 48% and an EC50 of 20 nM.
On the same counts, the results for `O=C(NCc1ccnc(OCC(F)(F)F)c1)NC12CCC(F)(CC1)CC2` [Example 180, 1-(4-fluoro-1-bicyclo[2.2.2]octanyl)-3-[[2-(2,2,2-trifluoroethoxy)pyridin-4-yl]methyl]urea] are 72% and 310 nM.
`O=C(NCc1ccnc(OC(F)F)c1)NCC1CC(F)(F)C1` [Example 181, 1-[(3,3-difluorocyclobutyl)methyl]-3-[[2-(difluoromethoxy)pyridin-4-yl]methyl]urea] gave an Emax of 41% and an EC50 of 660 nM.
